# How the values were obtained:
# [1] = system: mouse; conditions: Carcinogenicity, cd1, Oral, Feed, dose end: 18 month, group: systemic
# [2] = system: rat; conditions: Subchronic oral toxicity in rodents, fischer, Feed, dose end: 3 month, group: systemic
# [3] = system: rat; conditions: Combined chronic toxicity/carcinogenicity, fischer, Oral, Feed, dose end: 24 month, group: systemic
# [4] = system: dog; conditions: Subchronic oral toxicity in nonrodent, beagle, Feed, dose end: 13 week, group: systemic, systemic / pathology microscopic / intestine large / vacuolization + systemic / pathology microscopic / intestine small / vacuolization + …
# [5] = system: mouse; conditions: Subchronic oral toxicity in rodents, cd1, Feed, dose end: 13 week, group: systemic, systemic / pathology microscopic / adrenal gland / vacuolization cytoplasmic + systemic / pathology microscopic / bone marrow / …
# [6] = system: rat; conditions: Subchronic oral toxicity in rodents, fischer, Feed, dose end: 13 week, group: systemic, systemic / pathology microscopic / thyroid gland / vacuolization + systemic / organ weight / heart / nos
# [7] = system: rat; conditions: Multigenerational reproductive toxicity study, sprague dawley, Oral, Feed, dose end: 2 generation
# [8] = system: dog; conditions: Chronic toxicity, beagle, Oral, Feed, dose end: 52 week, group: systemic
# [9] = system: mouse; conditions: Carcinogenicity, cd1, Oral, Feed, dose end: 78 week, group: systemic
# [10] = system: rat; conditions: Multigenerational reproductive toxicity study, sprague dawley, Oral, Feed, dose end: 2 generation; remark: listed apart in the source
# [11] = system: dog; conditions: Subchronic oral toxicity in nonrodent, beagle, Capsule, dose end: 90 day, group: systemic, systemic / clinical chemistry / [other] / [other] + systemic / clinical chemistry / alkaline phosphatase (alp/alk) / alkaline phosphatase (…
# [12] = system: rat; conditions: Subchronic oral toxicity in rodents, other, Feed, dose end: 90 day, group: systemic, systemic / in life observation / body weight / body weight gain + systemic / pathology microscopic / kidney / regeneration + systemic / …
# [13] = system: rat; conditions: Combined chronic toxicity/carcinogenicity, sprague dawley, Oral, Feed, dose end: 24 month, group: systemic
# [14] = system: rat; conditions: Prenatal developmental toxicity study, other, Oral, Gavage/Intubation, dose end: 15 GD
# [15] = system: rat; conditions: Subchronic oral toxicity in rodents, sprague dawley, Feed, dose end: 90 day, group: systemic, systemic / organ weight / kidney / absolute + systemic / organ weight / kidney / relative to body weight + systemic / organ weight / kidney…
# [16] = system: rat; conditions: Subchronic oral toxicity in rodents, other, Feed, dose end: 90 day, group: systemic
# [17] = system: dog; conditions: Subchronic oral toxicity in nonrodent, beagle, Feed, dose end: 90 day, group: systemic, systemic / clinical chemistry / alkaline phosphatase (alp/alk) / alkaline phosphatase (alp/alk) + systemic / organ weight / liver / absolute…
# [18] = systemic / pathology microscopic / heart / cardiomyopathy + systemic / pathology microscopic / lymph node / histiocytosis + systemic / …
# [19] = systemic / pathology microscopic / lymph node / histiocytosis + systemic / pathology microscopic / spleen / histiocytosis + systemic / …
# [20] = systemic / pathology microscopic / thyroid gland / vacuolization
# [21] = systemic / pathology microscopic / thyroid gland / vacuolization + systemic / clinical chemistry / alkaline phosphatase (alp/alk) / alkaline…
# [22] = group: offspring, systemic / in life observation / body weight / offspring (pup) weight
# [23] = group: parental, systemic / organ weight / heart / absolute + systemic / organ weight / heart / relative to body weight + systemic / organ weight / kidney / …
# [24] = group: reproductive, reproductive / offspring survival early / litter size / litter size + reproductive / offspring survival early / birth index / live birth …
# [25] = systemic / pathology microscopic / lymph node / vacuolization + systemic / pathology microscopic / spleen / vacuolization + systemic / organ…
# [26] = systemic / in life observation / mortality / mortality + systemic / organ weight / kidney / absolute + systemic / organ weight / kidney / …
# [27] = group: offspring, developmental / offspring survival late / [other] / [other] + developmental / offspring survival late / viability index / viability index + …
# [28] = group: offspring, systemic / pathology microscopic / kidney / dilatation
# [29] = group: parental, systemic / in life observation / body weight / body weight + systemic / in life observation / food consumption / food consumption + systemic…
# [30] = systemic / in life observation / body weight / body weight + systemic / in life observation / body weight / body weight gain + systemic / in…
# [31] = group: developmental, developmental / developmental malformation / aortic arch / retroesophageal + developmental / developmental malformation / bone / misshapen…
# [32] = group: maternal, systemic / in life observation / body weight / body weight + systemic / in life observation / body weight / body weight gain
# [33] = group: maternal, systemic / in life observation / body weight / body weight + systemic / in life observation / body weight / body weight gain + reproductive…
# [34] = systemic / pathology microscopic / liver / inclusion body intracytoplasmic
structure (smiles),measurement,setting,value
CC[C@H]1CCC[C@H](O[C@H]2CC[C@H](N(C)C)[C@@H](C)O2)[C@@H](C)C(=O)C2=C[C@@H]3[C@@H](C=C(C)[C@@H]4C[C@@H](O[C@@H]5O[C@@H](C)[C@H](OC)[C@@H](OC)[C@H]5OC)C[C@@H]34)[C@@H]2CC(=O)O1.CC[C@H]1CCC[C@H](O[C@H]2CC[C@H](N(C)C)[C@@H](C)O2)[C@@H](C)C(=O)C2=C[C@@H]3[C@@H](C=C[C@@H]4C[C@@H](O[C@@H]5O[C@@H](C)[C@H](OC)[C@@H](OC)[C@H]5OC)C[C@@H]34)[C@@H]2CC(=O)O1 [Spinosad],LOAEL,[1]; systemic / hematology / leukocyte (wbc) count differential / leukocyte (wbc),41.5 mg/kg/day
same,NOAEL,[1]; systemic / hematology / leukocyte (wbc) count differential / leukocyte (wbc) + systemic / organ weight / liver / relative to body weight + …,1.3 mg/kg/day
same,NEL,[1]; systemic / organ weight / brain / relative to body weight,1.1 mg/kg/day
same,LEL,[1]; systemic / organ weight / brain / relative to body weight + systemic / in life observation / body weight / body weight + systemic / in life …,32.7 mg/kg/day
same,LOAEL,[2]; [18],68.5 mg/kg/day
same,NOAEL,[2]; [18],33.9 mg/kg/day
same,LEL,[2]; [19],33.9 mg/kg/day
same,NEL,[2]; [19],< 33.9 mg/kg/day
same,LEL,[3]; [20],9.5 mg/kg/day
same,LOAEL,[3]; [20],24.1 mg/kg/day
same,NEL,[3]; [21],2.4 mg/kg/day
same,NOAEL,[3]; [21],9.5 mg/kg/day
same,LEL,[4],9.73 mg/kg/day
same,LOAEL,[4],9.73 mg/kg/day
same,NEL,[4],4.89 mg/kg/day
same,NOAEL,[4],4.89 mg/kg/day
same,LEL,[5],22.5 mg/kg/day
same,LOAEL,[5],22.5 mg/kg/day
same,NEL,[5],7.5 mg/kg/day
same,NOAEL,[5],7.5 mg/kg/day
same,LEL,[6],42.7 mg/kg/day
same,LOAEL,[6],> 42.7 mg/kg/day
same,NOAEL,[6],≥ 42.7 mg/kg/day
same,LEL,[7]; [22],10 mg/kg/day
same,NEL,[7]; [22],3 mg/kg/day
same,NOAEL,"[7]; group: offspring, systemic / in life observation / clinical signs / hemorrhagic perineal discharge",10 mg/kg/day
same,LOAEL,"[7]; group: offspring, systemic / in life observation / clinical signs / hemorrhagic perineal discharge + systemic / in life observation / body weight / offspring…",100 mg/kg/day
same,LEL,[7]; [23],100 mg/kg/day
same,LOAEL,[7]; [23],100 mg/kg/day
same,NEL,[7]; [23],10 mg/kg/day
same,NOAEL,[7]; [23],10 mg/kg/day
same,NEL,[7]; [24],10 mg/kg/day
same,NOAEL,[7]; [24],10 mg/kg/day
same,LOAEL,"[7]; group: reproductive, reproductive / offspring survival early / litter size / litter size + reproductive / reproductive performance / dystocia / dystocia",100 mg/kg/day
same,LEL,"[7]; group: reproductive, reproductive / offspring survival early / litter size / litter size + reproductive / reproductive performance / dystocia / dystocia + …",100 mg/kg/day
same,LOAEL,[8]; systemic / pathology microscopic / lymph node / vacuolization + systemic / pathology microscopic / spleen / vacuolization,8.22 mg/kg/day
same,LEL,[8]; [25],8.22 mg/kg/day
same,NEL,[8]; [25],2.72 mg/kg/day
same,NOAEL,[8]; [25],2.72 mg/kg/day
"O=C(O)CCCOc1ccc(Cl)cc1Cl [2,4-DB]",LOAEL,[9]; [26],112 mg/kg/day
same,NOAEL,[9]; [26],37.5 mg/kg/day
same,LEL,[9]; systemic / in life observation / mortality / mortality + systemic / pathology microscopic / kidney / amyloid deposition + systemic / …,112 mg/kg/day
same,NEL,[9]; systemic / organ weight / kidney / absolute + systemic / organ weight / kidney / relative to body weight + systemic / organ weight / liver…,37.5 mg/kg/day
same,LOAEL,[10]; [27],112 mg/kg/day
same,NOAEL,[10]; [27],25 mg/kg/day
same,LEL,[10]; [28],25 mg/kg/day
same,NEL,[10]; [28],5 mg/kg/day
same,LEL,[10]; [29],112 mg/kg/day
same,LOAEL,[10]; [29],112 mg/kg/day
same,NEL,[10]; [29],25 mg/kg/day
same,NOAEL,[10]; [29],25 mg/kg/day
same,LEL,[11],25 mg/kg/day
same,LOAEL,[11],25 mg/kg/day
same,NEL,[11],8 mg/kg/day
same,NOAEL,[11],8 mg/kg/day
same,LEL,[12],50 mg/kg/day
same,LOAEL,[12],50 mg/kg/day
same,NEL,[12],15.8 mg/kg/day
same,NOAEL,[12],15.8 mg/kg/day
same,LOAEL,[13]; [30],30 mg/kg/day
same,NOAEL,[13]; [30],3 mg/kg/day
same,NEL,[13]; systemic / organ weight / liver / absolute + systemic / organ weight / heart / absolute + systemic / organ weight / spleen / absolute + …,90 mg/kg/day
same,LEL,[14]; [31],125 mg/kg/day
same,LOAEL,[14]; [31],125 mg/kg/day
same,NEL,[14]; [31],62.5 mg/kg/day
same,NOAEL,[14]; [31],62.5 mg/kg/day
same,LEL,[14]; [32],62.5 mg/kg/day
same,LOAEL,[14]; [32],62.5 mg/kg/day
same,NEL,[14]; [33],31.2 mg/kg/day
same,NOAEL,[14]; [33],31.2 mg/kg/day
same,LEL,[15],41.9 mg/kg/day
same,LOAEL,[15],41.9 mg/kg/day
same,NEL,[15],4.16 mg/kg/day
same,NOAEL,[15],4.16 mg/kg/day
COCC(=O)N(c1c(C)cccc1C)[C@H](C)C(=O)OC [Metalaxyl-M],LEL,[16]; [34],44.8 mg/kg/day
same,NEL,[16]; [34],16.8 mg/kg/day
same,LOAEL,[16]; systemic / pathology microscopic / liver / infiltration cellular + systemic / pathology microscopic / liver / inclusion body …,90.5 mg/kg/day
same,LEL,[17],38.6 mg/kg/day
same,LOAEL,[17],38.6 mg/kg/day
same,NEL,[17],7.25 mg/kg/day
same,NOAEL,[17],7.25 mg/kg/day

# From EPA's ToxRefDB 2
